Results as given in ChEMBL document CHEMBL5380782, “Design, Biological Evaluation, and Computer-Aided Analysis of Dihydrothiazepines as Selective Antichlamydial Agents” (J Med Chem, 2023).
In brackets after ≈: the same amount, converted by molar mass. Activity calls are given as the source filed them. The rule behind the calls is not given here.

What was measured:
Chlamydia trachomatis [1] = test: Antibacterial activity against Chlamydia trachomatis serovar L2 infected in HEp-2 cells assessed as bacterial growth inhibition incubated for 16 hrs by IFA assay; assay type: functional, organism-based; conditions: serovar L2, HEp-2, 16 h
Pichia kudriavzevii = test: Antimicrobial activity against Pichia kudriavzevii 6558 assessed as microbial growth inhibition by broth microdilution method; assay type: functional
Candida tropicalis = test: Antimicrobial activity against Candida tropicalis 750 assessed as microbial growth inhibition by broth microdilution method; assay type: functional
Nakaseomyces glabratus = test: Antimicrobial activity against Candida glabrata 2001 assessed as microbial growth inhibition by broth microdilution method; assay type: functional
Salmonella typhimurium = test: Mutagenicity in Salmonella typhimurium TA98 assessed as number of revertants per plate at 10 ug pretreated for 90 mins measured after 66 hrs by AMES test (reference value: 25.67 +/- 5.51); assay type: functional, Salmonella enterica subsp. enterica serovar Typhimurium; conditions: dose 10 µg; time 67.5 hrs
Chlamydia trachomatis [2] = test: Inhibition of recombinant Chlamydia trachomatis ClpX ATPase activity assessed as reduction in ATP consumption at 25 ug/ml incubated for 60 mins by Kinase Glo assay relative to control; conditions: dose 25.0 µg/ml
Chlamydia trachomatis [3] = test: Antibacterial activity against Chlamydia trachomatis serovar L2 infected in HEp-2 cells assessed as bacterial growth inhibition at 25 to 0.39 ug/ml incubated for 16 hrs by IFA assay; assay type: functional, organism-based; conditions: dose 25-0.39 µg/ml

Row | Structure (SMILES) | IC50 (Chlamydia trachomatis [1]; read-out: IC50) | IC50 (Chlamydia trachomatis [1]; read-out: pIC50 (converted)) | also measured
1 | N#Cc1ccc(C2Nc3ccccc3NC3=C2C(=O)c2ccccc23)cc1 (stereo not given) | 20.9 µg/mL | – | –
2 | O=C1C2=C(Nc3ccccc3SC2c2ccc(O)cc2)c2ccccc21 (stereo not given) | 14.4 µg/mL | 39.8 µM | –
3 | OC(Cn1cncn1)(Cn1cncn1)c1ccc(F)cc1F [FLUCONAZOLE] | – | – | MIC (Pichia kudriavzevii): 16 µg/mL (≈ 52.2 µM); MIC (Candida tropicalis): 0.5 µg/mL (≈ 1.63 µM); MIC (Nakaseomyces glabratus): 2 µg/mL (≈ 6.53 µM)
4 | COc1ccc(C2SCCNC3=C2C(=O)c2ccccc23)cc1 (stereo not given) | 16.1 µg/mL | – | –
5 | O=C1C2=C(Nc3cc(C(F)(F)F)ccc3SC2c2ccc(Br)cc2)c2ccccc21 (stereo not given) | 6.93 µg/mL | – | –
6 | Cc1ccc(C2Nc3ccccc3NC3=C2C(=O)c2ccccc23)cc1 (stereo not given) | 15 µg/mL | – | –
7 | Nc1ccc([N+](=O)[O-])cc1N | – | – | Activity (Salmonella typhimurium): 34.5
8 | O=C1C2=C(Nc3ccccc3SC2c2ccccc2C(=O)O)c2ccccc21 (stereo not given) | – | – | inhibition (Chlamydia trachomatis [2]): 20%; inhibition (Chlamydia trachomatis [3]): inactive
9 | O=C1C2=C(Nc3ccccc3SC2c2ccc(OC(F)(F)F)cc2)c2ccccc21 (stereo not given) | 7.44 µg/mL | 17.4 µM | –
10 | O=C1C2=C(Nc3ccccc3SC2c2ccc(Cl)cc2)c2ccccc21 (stereo not given) | 6.59 µg/mL | 17.4 µM | –
11 | Nc1ccc(C2Sc3ccccc3NC3=C2C(=O)c2ccccc23)cc1 (stereo not given) | 17.6 µg/mL | 49 µM | –
12 | COc1ccc(C2Nc3ccccc3NC3=C2C(=O)c2ccccc23)cc1 (stereo not given) | 22.6 µg/mL | 53.7 µM | –
13 | O=C1C2=C(Nc3ccccc3SC2c2cccs2)c2ccccc21 (stereo not given) | 7.36 µg/mL | – | –
14 | O=C1C2=C(Nc3ccccc3SC2c2cccc(Cl)c2)c2ccccc21 (stereo not given) | 4.79 µg/mL | 12.9 µM | –
15 | O=C1C2=C(Nc3ccccc3SC2c2ccc([N+](=O)[O-])cc2)c2ccccc21 (stereo not given) | 9.01 µg/mL | – | –
16 | O=C1C2=C(Nc3ccccc3SC2c2cccc([N+](=O)[O-])c2)c2ccccc21 (stereo not given) | 6.35 µg/mL | – | –
17 | CC(=O)Oc1ccc(C2Sc3ccccc3NC3=C2C(=O)c2ccccc23)cc1 (stereo not given) | 7.18 µg/mL | – | –
18 | N#Cc1ccc(C2Sc3ccccc3NC3=C2C(=O)c2ccccc23)cc1 (stereo not given) | 10.2 µg/mL | – | –
19 | Cc1ccc(C2Sc3ccccc3NC3=C2C(=O)c2ccccc23)cc1 (stereo not given) | 6.72 µg/mL | – | –
20 | Cc1ccccc1C1Sc2ccccc2NC2=C1C(=O)c1ccccc12 (stereo not given) | 7.82 µM | 7.94 µM | –
